Test results reported in patent US8697739B2, “Bicyclic acetyl-CoA carboxylase inhibitors and uses thereof” (Novartis AG, priority 2010, dated 2014).

Each compound was assayed against T1, human acetyl-CoA carboxylase 2 (ACC2) (Homo sapiens, UniProt O00763) (assay: Acetyl-CoA carboxylase enzyme assay (malonyl-CoA formation by LC/MS/MS)). Conditions: recombinant human ACC2 (aa 144-2458); read-out: IC50 ACC2.
T1 construct: The cDNA encoding amino acids 144 to 2458 of human acetyl-CoA carboxylase 2; made in house; host or cells: Sf9 insect cells (baculovirus, pFastBac1)
T1 sequence (O00763 144-2458): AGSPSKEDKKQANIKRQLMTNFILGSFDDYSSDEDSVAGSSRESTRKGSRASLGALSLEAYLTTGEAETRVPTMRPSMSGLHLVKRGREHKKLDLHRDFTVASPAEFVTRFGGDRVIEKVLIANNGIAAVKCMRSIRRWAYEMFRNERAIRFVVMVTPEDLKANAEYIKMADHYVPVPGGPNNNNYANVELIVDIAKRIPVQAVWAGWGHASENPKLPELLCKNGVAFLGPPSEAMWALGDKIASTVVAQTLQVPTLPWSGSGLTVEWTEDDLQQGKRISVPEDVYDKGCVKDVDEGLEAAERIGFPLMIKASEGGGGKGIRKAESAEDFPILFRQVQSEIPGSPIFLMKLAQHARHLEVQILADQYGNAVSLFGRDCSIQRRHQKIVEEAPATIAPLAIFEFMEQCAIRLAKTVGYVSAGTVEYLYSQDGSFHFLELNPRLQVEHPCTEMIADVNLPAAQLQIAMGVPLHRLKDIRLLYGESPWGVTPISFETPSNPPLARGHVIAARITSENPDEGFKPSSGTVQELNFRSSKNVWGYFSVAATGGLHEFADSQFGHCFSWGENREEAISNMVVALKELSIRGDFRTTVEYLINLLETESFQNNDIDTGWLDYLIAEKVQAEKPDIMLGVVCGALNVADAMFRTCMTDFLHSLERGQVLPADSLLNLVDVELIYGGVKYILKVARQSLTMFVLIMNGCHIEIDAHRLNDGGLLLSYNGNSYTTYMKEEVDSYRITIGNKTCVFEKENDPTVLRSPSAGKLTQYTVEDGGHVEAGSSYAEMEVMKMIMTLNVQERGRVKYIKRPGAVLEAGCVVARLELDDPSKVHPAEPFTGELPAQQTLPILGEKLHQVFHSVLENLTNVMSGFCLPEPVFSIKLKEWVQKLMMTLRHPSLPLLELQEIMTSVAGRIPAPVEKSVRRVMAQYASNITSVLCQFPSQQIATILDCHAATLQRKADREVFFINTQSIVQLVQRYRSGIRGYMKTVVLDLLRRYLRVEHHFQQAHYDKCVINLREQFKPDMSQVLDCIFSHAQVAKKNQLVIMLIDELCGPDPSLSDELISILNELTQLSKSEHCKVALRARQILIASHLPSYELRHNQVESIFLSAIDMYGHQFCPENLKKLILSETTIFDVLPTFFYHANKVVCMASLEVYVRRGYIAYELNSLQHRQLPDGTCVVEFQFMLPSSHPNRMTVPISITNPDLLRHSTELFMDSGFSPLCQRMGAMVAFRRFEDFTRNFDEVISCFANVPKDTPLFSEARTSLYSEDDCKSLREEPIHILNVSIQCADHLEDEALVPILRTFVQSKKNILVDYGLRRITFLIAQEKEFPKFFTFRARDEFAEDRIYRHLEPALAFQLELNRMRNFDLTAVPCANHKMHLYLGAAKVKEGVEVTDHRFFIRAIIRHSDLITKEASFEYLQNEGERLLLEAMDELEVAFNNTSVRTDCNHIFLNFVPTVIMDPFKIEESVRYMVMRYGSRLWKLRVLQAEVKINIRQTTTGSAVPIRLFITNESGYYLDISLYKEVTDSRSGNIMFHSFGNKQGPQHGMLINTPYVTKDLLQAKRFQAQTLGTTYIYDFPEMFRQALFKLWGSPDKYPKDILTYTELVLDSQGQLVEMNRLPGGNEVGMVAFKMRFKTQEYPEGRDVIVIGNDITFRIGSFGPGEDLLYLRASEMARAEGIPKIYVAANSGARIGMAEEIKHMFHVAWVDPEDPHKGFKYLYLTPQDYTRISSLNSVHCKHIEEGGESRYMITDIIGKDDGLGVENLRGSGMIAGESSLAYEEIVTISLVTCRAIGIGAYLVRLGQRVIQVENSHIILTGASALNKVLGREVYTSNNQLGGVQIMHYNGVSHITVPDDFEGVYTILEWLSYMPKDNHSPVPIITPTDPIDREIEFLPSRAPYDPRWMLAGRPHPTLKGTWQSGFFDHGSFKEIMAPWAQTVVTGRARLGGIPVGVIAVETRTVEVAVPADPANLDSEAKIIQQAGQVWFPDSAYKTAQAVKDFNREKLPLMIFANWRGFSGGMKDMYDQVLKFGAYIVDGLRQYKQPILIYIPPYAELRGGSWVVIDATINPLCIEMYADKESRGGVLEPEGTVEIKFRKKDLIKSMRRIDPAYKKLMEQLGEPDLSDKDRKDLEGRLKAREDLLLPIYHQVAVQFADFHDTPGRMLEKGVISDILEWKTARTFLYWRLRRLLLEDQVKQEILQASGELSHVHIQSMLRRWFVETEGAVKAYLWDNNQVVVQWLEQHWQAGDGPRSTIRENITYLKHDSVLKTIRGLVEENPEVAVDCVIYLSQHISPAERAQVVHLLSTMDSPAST
Format: biochemical
Summary of the method: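 Malonyl-CoA formation was read by LC/MS/MS MRM against a [13C3]-malonyl-CoA internal standard, after acetic acid quench. The enzyme was baculovirus/Sf9-expressed human ACC2 residues 144–2458, given 15 minutes room-temperature compound preincubation in HEPES pH 7.5 buffer with MgCl2, citrate and DTT. Substrate solution held 50 μM acetyl-CoA, 120 μM ATP and 2 mM KHCO3.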

| Structure (SMILES) | IC50 |
| --- | --- |
| Cc1ccccc1-c1cc2ccc(S(=O)(=O)N[C@H]3CC[C@H](C(=O)N4CCCC(C(F)(F)F)C4)CC3)cc2[nH]1 (stereo partly drawn) [Example 321, 2-o-tolyl-N-((1r,4r)-4-(3-(trifluoromethyl)piperidine-1-carbonyl)cyclohexyl)-1H-indole-6-sulfonamide] | 0.25 µM |
| C[C@@H](NC(=O)C12CCC(NS(=O)(=O)c3cnc4c(c3)NCCN4)(CC1)CC2)c1ccc(F)cc1 [Example 270, (R)-N-(1-(4-fluorophenyl)ethyl)-4-(1,2,3,4-tetrahydropyrido[3,2-b]pyrazine-7-sulfonamido)bicyclo[2.2.2]octane-1-carboxamide] | 0.165 µM |
| C[C@@H](NC(=O)[C@H]1CC[C@H](NS(=O)(=O)c2ccc3nc(OC4CCC4)ccc3c2)CC1)c1ccc(F)cc1 [Example 51, (1r,4R)-4-(2-cyclobutoxyquinoline-6-sulfonamido)-N-((R)-1-(4-fluorophenyl)ethyl)cyclohexanecarboxamide] | 0.101 µM |
| C[C@@H](NC(=O)[C@H]1CC[C@H](NS(=O)(=O)c2cnc3c(c2)CCCN3C)CC1)c1ccc(F)cc1 [Example 145, (1r,4R)-N-((R)-1-(4-fluorophenyl)ethyl)-4-(8-methyl-5,6,7,8-tetrahydro-1,8-naphthyridine-3-sulfonamido)cyclohexanecarboxamide] | 0.128 µM |
| O=C([C@H]1CC[C@H](NS(=O)(=O)c2cnc3ccccc3c2)CC1)N1CCCCC1c1ccccc1 (stereo partly drawn) [Example 59, N-((1r,4r)-4-(2-phenylpiperidine-1-carbonyl)cyclohexyl)quinoline-3-sulfonamide] | 0.339 µM |
| CC(C)c1nnc(-c2ccc(NS(=O)(=O)c3ccc4[nH]c(Nc5ccc(N6CCOCC6)cc5)nc4c3)cc2)o1 [Example 603, N-(4-(5-isopropyl-1,3,4-oxadiazol-2-yl)phenyl)-2-(4-morpholinophenylamino)-1H-benzo[d]imidazole-5-sulfonamide] | 0.323 µM |
| C[C@@H](NC(=O)[C@H]1CC[C@H](NS(=O)(=O)c2ccc3[nH]cnc3c2)CC1)c1ccc(F)cc1 [Example 107, (1r,4R)-4-(1H-benzo[d]imidazole-5-sulfonamido)-N-((R)-1-(4-fluorophenyl)ethyl)cyclohexanecarboxamide] | 0.205 µM |
| Cn1ccc2cc(S(=O)(=O)N[C@H]3CC[C@H](C(=O)N[C@H]4CCCCNC4=O)CC3)ccc21 [Example 672, (1r,4S)-4-(1-methyl-1H-indole-5-sulfonamido)-N-((S)-2-oxoazepan-3-yl)cyclohexanecarboxamide] | 0.639 µM |
| CCCCOC(=O)c1ccc(NS(=O)(=O)c2ccc3nc(-c4ccccc4)[nH]c3c2)cc1 [Example 491, butyl 4-(2-phenyl-1H-benzo[d]imidazole-6-sulfonamido)benzoate] | 1.13 µM |
| O=C(NC1CCCc2ccccc21)[C@H]1CC[C@H](NS(=O)(=O)c2ccc3[nH]c(-c4ccccc4)nc3c2)CC1 (stereo partly drawn) [Example 636, (1r,4r)-4-(2-phenyl-1H-benzo[d]imidazole-5-sulfonamido)-N-(1,2,3,4-tetrahydronaphthalen-1-yl)cyclohexanecarboxamide] | 1.72 µM |
| CN1CCN(c2ccc(-c3nc4cc(S(=O)(=O)Nc5ccc(-c6nnc(C(C)(C)C)o6)cc5)ccc4[nH]3)cc2)CC1 [Example 592, N-(4-(5-tert-butyl-1,3,4-oxadiazol-2-yl)phenyl)-2-(4-(4-methylpiperazin-1-yl)phenyl)-1H-benzo[d]imidazole-5-sulfonamide] | 0.415 µM |
| C[C@@H](NC(=O)[C@H]1CC[C@H](NS(=O)(=O)c2ccc3nc(CCC(=O)O)ccc3c2)CC1)c1ccc(F)cc1 [Example 219, 3-(6-(N-((1R,4r)-4-((R)-1-(4-fluorophenyl)ethylcarbamoyl)cyclohexyl)sulfamoyl)quinolin-2-yl)propanoic acid] | 0.495 µM |
| C[C@@H](NC(=O)[C@H]1CC[C@H](NS(=O)(=O)c2ccc3c(c2)C(=O)NCC3)CC1)c1ccc(F)cc1 [Example 223, (1r,4R)-N-((R)-1-(4-fluorophenyl)ethyl)-4-(1-oxo-1,2,3,4-tetrahydroisoquinoline-7-sulfonamido)cyclohexanecarboxamide] | 0.205 µM |
| CC(C)(C)OC(=O)N1CCN(C(=O)[C@H]2CC[C@H](NS(=O)(=O)c3cnc4ccccc4c3)CC2)C(c2ccccc2)C1 (stereo partly drawn) [Example 60, tert-butyl 3-phenyl-4-((1r,4r)-4-(quinoline-3-sulfonamido)cyclohexanecarbonyl)piperazine-1-carboxylate] | 0.131 µM |
| CCNC(=O)N1CCNc2ccc(S(=O)(=O)N[C@H]3CC[C@H](C(=O)N[C@H](C)c4ccc(F)cc4)CC3)cc21 [Example 239, N-ethyl-7-(N-((1R,4r)-4-((R)-1-(4-fluorophenyl)ethylcarbamoyl)cyclohexyl)sulfamoyl)-3,4-dihydroquinoxaline-1(2H)-carboxamide] | 0.13 µM |

The next compounds have a lower IC50 than those just listed; values first:

| IC50 | Structure (SMILES) |
| --- | --- |
| 0.028 µM | C[C@@H](NC(=O)[C@H]1CC[C@H](NS(=O)(=O)c2ccc3cc(C4CC4)[nH]c3c2)CC1)c1ccc(F)cc1 [Example 290, (1r,4R)-4-(2-cyclopropyl-1H-indole-6-sulfonamido)-N-((R)-1-(4-fluorophenyl)ethyl)cyclohexanecarboxamide] |
| 0.016 µM | O=C1NCCCC[C@@H]1NC(=O)[C@H]1CC[C@H](NS(=O)(=O)c2ccc3[nH]c(-c4ccccc4)nc3c2)CC1 [Example 612, (1r,4S)-N-((S)-2-oxoazepan-3-yl)-4-(2-phenyl-1H-benzo[d]imidazole-5-sulfonamido)cyclohexanecarboxamide] |
| 0.015 µM | CC(C)COC(=O)N1CCNc2ccc(S(=O)(=O)N[C@H]3CC[C@H](C(=O)N[C@H](C)c4ccc(F)cc4)CC3)cc21 [Example 217, isobutyl 7-(N-((1R,4r)-4-((R)-1-(4-fluorophenyl)ethylcarbamoyl)cyclohexyl)sulfamoyl)-3,4-dihydroquinoxaline-1(2H)-carboxylate] |
| 0.03 µM | Cn1c(-c2ccccc2)cc2cc(S(=O)(=O)N[C@H]3CC[C@H](C(=O)N[C@H](CC(=O)O)c4ccccc4)CC3)ccc21 [Example 95, (R)-3-((1r,4R)-4-(1-methyl-2-phenyl-1H-indole-5-sulfonamido)cyclohexanecarboxamido)-3-phenylpropanoic acid] |
| < 0.01 µM | CC(C)[C@H](N)C(=O)OCc1ccc(-c2cc3ccc(S(=O)(=O)N[C@H]4CC[C@H](C(=O)N[C@H](C)c5ccc(F)cc5)CC4)cc3[nH]2)cc1 [Example 27, (S)-4-(6-(N-((1R,4r)-4-((R)-1-(4-fluorophenyl)ethylcarbamoyl)cyclohexyl)sulfamoyl)-1H-indol-2-yl)benzyl 2-amino-3-methylbutanoate] |
| 0.075 µM | O=C([C@H]1CC[C@H](NS(=O)(=O)c2ccc3cc(-c4ccccc4)[nH]c3c2)CC1)N1CCCCC1 [Example 375, 2-phenyl-N-((1r,4r)-4-(piperidine-1-carbonyl)cyclohexyl)-1H-indole-6-sulfonamide] |
| 0.068 µM | C[C@@H](NC(=O)[C@H]1CC[C@H](NS(=O)(=O)c2cnc3c(c2)NCCN3C)CC1)c1ccc(F)cc1 [Example 142, (1r,4R)-N-((R)-1-(4-fluorophenyl)ethyl)-4-(4-methyl-1,2,3,4-tetrahydropyrido[3,2-b]pyrazine-7-sulfonamido)cyclohexanecarboxamide] |
| 0.01 µM | C[C@@H](NC(=O)[C@H]1CC[C@H](NS(=O)(=O)c2ccc3c(c2)N(C)CCC3)CC1)c1ccc(F)cc1 [Example 148, (1r,4R)-N-((R)-1-(4-fluorophenyl)ethyl)-4-(1-methyl-1,2,3,4-tetrahydroquinoline-7-sulfonamido)cyclohexanecarboxamide] |
| < 0.01 µM | C[C@H]1CCCCN1C(=O)[C@H]1CC[C@H](NS(=O)(=O)c2ccc3c(Cl)c(-c4ccc(CCC(=O)O)cc4)n(C)c3c2)CC1 [Example 416, 3-(4-(3-chloro-1-methyl-6-(N-((1S,4r)-4-((S)-2-methylpiperidine-1-carbonyl)cyclohexyl)sulfamoyl)-1H-indol-2-yl)phenyl)propanoic acid] |
| 0.043 µM | COc1ccc2cc(S(=O)(=O)N[C@H]3CC[C@H](C(=O)N[C@H](C)c4ccc(F)cc4)CC3)ccc2n1 [Example 49, (1r,4R)-N-((R)-1-(4-fluorophenyl)ethyl)-4-(2-methoxyquinoline-6-sulfonamido)cyclohexanecarboxamide] |
| 0.095 µM | Cn1c(-c2ccccc2)cc2ccc(S(=O)(=O)N[C@H]3CC[C@H](C(=O)N4CCC[C@@H]4CO)CC3)cc21 [Example 432, N-((1R,4r)-4-((R)-2-(hydroxymethyl)pyrrolidine-1-carbonyl)cyclohexyl)-1-methyl-2-phenyl-1H-indole-6-sulfonamide] |
| 0.017 µM | COc1ccc(-c2cc3ccc(S(=O)(=O)N[C@H]4CC[C@H](C(=O)N[C@H](C)c5ccc(F)cc5)CC4)cc3[nH]2)c(C)c1 [Example 297, (1r,4R)-N-((R)-1-(4-fluorophenyl)ethyl)-4-(2-(4-methoxy-2-methylphenyl)-1H-indole-6-sulfonamido)cyclohexanecarboxamide] |
| 0.017 µM | C[C@@H](NC(=O)[C@H]1CC[C@H](NS(=O)(=O)c2ccc3cc(-c4ccccc4Cl)[nH]c3c2)CC1)c1ccc(F)cc1 [Example 291, (1r,4R)-4-(2-(2-chlorophenyl)-1H-indole-6-sulfonamido)-N-((R)-1-(4-fluorophenyl)ethyl)cyclohexanecarboxamide] |
| 0.065 µM | O=C([C@H]1CC[C@H](NS(=O)(=O)c2ccc3cc(-c4ccccc4C(F)(F)F)[nH]c3c2)CC1)N1CCNC[C@@H]1c1ccccc1 [Example 333, N-((1S,4r)-4-((S)-2-phenylpiperazine-1-carbonyl)cyclohexyl)-2-(2-(trifluoromethyl)phenyl)-1H-indole-6-sulfonamide] |
| 0.061 µM | C[C@H](c1ccccc1)N(C)C(=O)[C@H]1CC[C@H](NS(=O)(=O)c2ccc3[nH]c(-c4ccccc4)nc3c2)CC1 [Example 578, (1r,4R)-N-methyl-4-(2-phenyl-1H-benzo[d]imidazole-5-sulfonamido)-N-((R)-1-phenylethyl)cyclohexanecarboxamide] |
